According to patent US8642028B2, “Recombinant adenoviruses encoding the specific iodine transporter (NIS)” (Aventis Pharma S.A., priority 1999, dated 2014):

Experiments:
NIS [1] = target: T1, NIS (Rattus norvegicus, UniProt Q63008); experiment: Inhibition by perchlorate of iodine transport by NIS in SiHa cells infected with Ad-NIS; type: cell-based
T1 construct: expressed in transfected cells; host or cells: SiHa human epithelial tumor cells (ATCC HTB-35) infected with Ad-NIS at a multiplicity of infection of 10
T1 sequence (Q63008 1-618): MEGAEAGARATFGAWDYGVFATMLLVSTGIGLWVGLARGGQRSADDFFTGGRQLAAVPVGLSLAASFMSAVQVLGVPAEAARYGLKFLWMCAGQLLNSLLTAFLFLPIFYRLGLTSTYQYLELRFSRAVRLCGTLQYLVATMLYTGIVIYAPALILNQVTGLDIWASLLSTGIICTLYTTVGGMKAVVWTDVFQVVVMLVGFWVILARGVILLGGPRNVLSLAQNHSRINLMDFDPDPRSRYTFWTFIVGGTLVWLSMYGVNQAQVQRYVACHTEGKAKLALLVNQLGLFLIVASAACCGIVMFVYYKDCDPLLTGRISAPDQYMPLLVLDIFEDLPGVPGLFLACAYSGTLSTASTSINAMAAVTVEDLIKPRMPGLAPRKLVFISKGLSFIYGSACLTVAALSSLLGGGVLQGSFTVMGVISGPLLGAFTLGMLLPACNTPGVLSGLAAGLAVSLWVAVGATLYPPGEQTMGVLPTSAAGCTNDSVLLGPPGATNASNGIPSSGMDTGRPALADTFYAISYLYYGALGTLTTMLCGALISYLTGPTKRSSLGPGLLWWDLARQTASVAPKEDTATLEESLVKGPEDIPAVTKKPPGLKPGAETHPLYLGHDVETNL
Description: (§1) The cells are infected with the Ad-NIS vector at a multiplicity of infection of 10. The capacity of the cells to capture iodine is tested 28 to 29 h after infection according to the Weiss et al. method [Endocrinology (1984) 114: 1090-1098]. The infected cells are washed with HBSS buffer and placed in contact for the time indicated in FIG. 3 with 0.5 ml of HBSS buffer containing 0.1 μCi of iodine-125. At the end of the contact time, the cells are washed once with cold HBSS buffer and then incubated for 20 min with cold ethanol. The quantity of iodine-125 captured by the cells is determined by assaying the radioactivity of the ethanol, with a gamma counter.
(§2) The specific inhibition of iodine transport by NIS was tested in the presence of perchlorate. NaCIO4 was added to the HBSS buffer containing iodine-125 so as to obtain final concentrations of 30, 300 and 3000 μM. The contact time between the cells and the iodine-125 is 15 minutes. The results are expressed as number of counts for the same number of cells.

NIS [2] = target: T1, NIS; experiment: Inhibition by perchlorate of iodine transport by NIS in FRTL-5 cells; type: cell-based
Description: as §1, §2

`[O-][Cl+3]([O-])([O-])O` [NaCIO4] was tested, and the “inhibitor concentration required for the same level of inhibition, SiHa cells relative to FRTL-5 cells” value (NIS [1]; SiHa cells infected with Ad-NIS versus FRTL-5 cells) was 10 times, the inhibition at 30 µM (NIS [1]; SiHa cells infected with Ad-NIS, 30 μM NaCIO4, 15 min contact, read-out: inhibition of the fixing of iodine) was 40% and the inhibition at 300 µM (NIS [1]; SiHa cells infected with Ad-NIS, 300 μM NaCIO4, 15 min contact, read-out: inhibition of the fixing of iodine) was 92%. The inhibition at 3000 µM (NIS [1]; SiHa cells infected with Ad-NIS, 3 mM NaCIO4, 15 min contact, read-out: inhibition of the fixing of iodine) was 98%, the inhibition at 30 µM (NIS [2]; FRTL-5, FRTL-5 cells, 30 μM NaCIO4, 15 min contact with iodine-125, read-out: inhibition of the fixing of iodine) was > 90% and the “inhibition of the fixing of iodine” value (NIS [2]; FRTL-5 cells, high NaCIO4 concentrations, 15 min contact with iodine-125) was 95%.
